This is an account of results in patent publication US20230002334A1, “TRPM8 MODULATORS” (Givaudan SA, priority 2019, published 2023).

This test has as its target T1, hTRPM8 (Homo sapiens, UniProt Q7Z2W7).
T1 construct: expressed in transfected cells
Nature of the test: Assay on TRPM8 modulators: calcium imaging (Fluo-4, Flexstation) in HEK293 cell line stably expressing hTRPM8. Format: cell-based. Particulars: HEK293 cells stably expressing hTRPM8, calcium influx, sigmoidal dose-response fit; read-out: EC50. The protocol:
A HEK293 cell line stably expressing hTRPM8 was generated according to Klein et al., (Chem. Senses 36: 649-658, 2011) and receptor activation was monitored by calcium imaging in a Flexstation. For Ca-imaging assays of TRPM8 channel activation, cells were seeded on day 0 at a density of 12000 cells per well in Dulbecco's modified Eagle medium (DMEM) containing 9% foetal bovine serum in black, clear bottom 96-well plates that had been coated with 0.001% polyethyleneimine (molecular weight=60 000, Acros Organics). On day 2, agonists were evaluated via calcium imaging using Fluo-4. Briefly, growth medium was discarded, and the cells were incubated in the dark for 1 h at 37° C. in 50 μL loading buffer consisting of 2.7 μM Fluo-4 AM (Invitrogen) and […] probenecid (Sigma-Aldrich) in DMEM (without serum). After incubation, the plates were washed five times with 100 μL of assay buffer (in mM: 130 NaCl, 5 KCl, 10 HEPES, 2 CaCl2, and 10 glucose, pH7.4.) and further incubated in the dark at room temperature for 30 min. The cells were then washed five times with 100 μL assay buffer and then calcium influx to serial dilutions of inventive compounds were measured in a Flexstation 3 (Molecular Devices). Receptor activation was initiated following addition of 20 μl of a 10-fold concentrated ligand stock solution, which is also prepared in assay buffer. Fluorescence was continuously monitored for 15 seconds prior to ligand addition and for 105 seconds after ligand addition, for a total of 120 seconds. Maximal receptor activation in relation to solvent control and relative to 31.6 μM menthol is determined. Data from serial dilutions were processed with a KNIME workflow to fit a sigmoidal dose-response curve and to extrapolate EC50 values.

T1 sequence (Q7Z2W7 whole entry): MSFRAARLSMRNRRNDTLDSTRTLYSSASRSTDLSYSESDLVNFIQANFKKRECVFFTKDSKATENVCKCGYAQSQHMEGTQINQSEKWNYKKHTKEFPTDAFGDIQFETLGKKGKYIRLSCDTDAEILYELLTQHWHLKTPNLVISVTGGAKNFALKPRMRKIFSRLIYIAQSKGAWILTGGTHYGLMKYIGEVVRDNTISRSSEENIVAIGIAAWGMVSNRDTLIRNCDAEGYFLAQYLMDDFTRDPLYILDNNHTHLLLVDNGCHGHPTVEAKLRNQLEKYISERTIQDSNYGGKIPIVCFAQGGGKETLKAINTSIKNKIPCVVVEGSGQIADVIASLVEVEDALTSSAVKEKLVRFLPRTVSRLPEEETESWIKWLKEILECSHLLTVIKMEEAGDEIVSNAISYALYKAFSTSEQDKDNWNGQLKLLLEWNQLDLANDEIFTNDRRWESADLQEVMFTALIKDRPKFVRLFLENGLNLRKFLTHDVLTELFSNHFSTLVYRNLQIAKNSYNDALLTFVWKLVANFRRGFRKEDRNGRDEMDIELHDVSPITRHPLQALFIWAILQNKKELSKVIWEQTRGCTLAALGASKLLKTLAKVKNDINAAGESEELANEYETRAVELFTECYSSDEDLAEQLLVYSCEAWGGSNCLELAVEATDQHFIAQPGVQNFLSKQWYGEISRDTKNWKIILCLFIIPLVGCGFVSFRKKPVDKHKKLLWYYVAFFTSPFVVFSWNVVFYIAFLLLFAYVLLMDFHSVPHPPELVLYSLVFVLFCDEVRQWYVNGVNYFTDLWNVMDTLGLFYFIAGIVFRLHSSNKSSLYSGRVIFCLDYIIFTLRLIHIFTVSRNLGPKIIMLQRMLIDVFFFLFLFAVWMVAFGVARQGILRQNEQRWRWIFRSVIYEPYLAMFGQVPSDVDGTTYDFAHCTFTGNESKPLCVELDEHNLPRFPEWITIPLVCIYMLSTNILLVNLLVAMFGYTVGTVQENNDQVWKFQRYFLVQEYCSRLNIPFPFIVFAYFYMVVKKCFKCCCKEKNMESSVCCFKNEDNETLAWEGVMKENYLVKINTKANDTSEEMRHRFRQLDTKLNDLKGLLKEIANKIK

Usually EC50 stands for the concentration giving half of the maximal effect. For the compound `CCc1ccccc1[C@H]1C[C@@H]2[C@@H]([C@@H](C)C1)N(C(C)C)OC2(C)C` (racemic) [Compound 80, rac-(3aR,5R,7S,7aR)-5-(2-ethylphenyl)-1-isopropyl-3,3,7-trimethyloctahydrobenzo[c]isoxazole], the 50% effective concentration (EC50) was 300 to 1000 nM.
For `C[C@H]1C[C@@](C)(c2ccccc2F)C[C@@H]2[C@@H]1N(C)OC2(C)C` (racemic) [Compound 81, rac-(3aR,5R,7S,7aR)-5-(2-fluorophenyl)-1,3,3,5,7-pentamethyloctahydrobenzo[c]isoxazole] the value was 50 to 300 nM.
For `COc1ccccc1[C@@]1(C)C[C@@H]2[C@@H]([C@@H](C)C1)N(C)OC2(C)C` (racemic) [Compound 82, rac-(3aR,5R,7S,7aR)-5-(2-methoxyphenyl)-1,3,3,5,7-pentamethyloctahydrobenzo[c]isoxazole] the value was 50 to 300 nM.
Next, `C[C@H]1C[C@@](C)(c2ccc(F)c(F)c2)C[C@@H]2[C@@H]1N(C)OC2(C)C` (racemic) [Compound 84, rac-(3aR,5R,7S,7aR)-5-(3,4-difluorophenyl)-1,3,3,5,7-pentamethyloctahydrobenzo[c]isoxazole]: 50 to 300 nM.
In the case of `COc1cc(OC)cc([C@@]2(C)C[C@@H]3[C@@H]([C@@H](C)C2)N(C)OC3(C)C)c1` (racemic) [Compound 86, rac-(3aR,5R,7S,7aR)-5-(3,5-dimethoxyphenyl)-1,3,3,5,7-pentamethyloctahydrobenzo[c]isoxazole], the EC50 is 1000 to 35000 nM.
For `Cc1cc(C)cc([C@@]2(C)C[C@@H]3[C@@H]([C@@H](C)C2)N(C)OC3(C)C)c1` (racemic) [Compound 87, rac-(3aR,5R,7S,7aR)-5-(3,5-dimethylphenyl)-1,3,3,5,7-pentamethyloctahydrobenzo[c]isoxazole] the value was 300 to 1000 nM.
As for `Cc1cc(C)cc([C@@]2(C)C[C@@H]3[C@@H]([C@@H](C)C2)N(C(C)C)OC3(C)C)c1` (racemic) [Compound 88, rac-(3aR,5R,7S,7aR)-5-(3,5-dimethylphenyl)-1-isopropyl-3,3,5,7-tetramethyloctahydrobenzo[c]isoxazole], the EC50 was in the range of 300 to 1000 nM.
For `Cc1c(Cl)cccc1[C@@]1(C)C[C@@H]2[C@@H]([C@@H](C)C1)N(C)OC2(C)C` (racemic) [Compound 89, rac-(3aR,5R,7S,7aR)-5-(3-chloro-2-methylphenyl)-1,3,3,5,7-pentamethyloctahydrobenzo[c]isoxazole] the value was 50 to 300 nM.
For `Cc1c(Cl)cccc1[C@H]1C[C@@H]2[C@@H]([C@@H](C)C1)N(C(C)C)OC2(C)C` (racemic) [Compound 90, rac-(3aR,5R,7S,7aR)-5-(3-chloro-2-methylphenyl)-1-isopropyl-3,3,7-trimethyloctahydrobenzo[c]isoxazole] the value was 50 to 300 nM.
For the compound `C[C@H]1C[C@@](C)(c2cc(F)cc(C(F)(F)F)c2)C[C@@H]2[C@@H]1N(C)OC2(C)C` (racemic) [Compound 91, rac-(3aR,5R,7S,7aR)-5-(3-fluoro-5-(trifluoromethyl)phenyl)-1,3,3,5,7-pentamethyloctahydrobenzo[c]isoxazole], the EC50 was in the range of 300 to 1000 nM.
Consider `C[C@H]1C[C@@](C)(c2cccc(F)c2)C[C@@H]2[C@@H]1N(C)OC2(C)C` (racemic) [Compound 92, rac-(3aR,5R,7S,7aR)-5-(3-fluorophenyl)-1,3,3,5,7-pentamethyloctahydrobenzo[c]isoxazole], for which the concentration for a half-maximal effect (EC50) is 50 to 300 nM.
Next, `CC(C)c1cccc([C@@]2(C)C[C@@H]3[C@@H]([C@@H](C)C2)N(C)OC3(C)C)c1` (racemic) [Compound 93, rac-(3aR,5R,7S,7aR)-5-(3-isopropylphenyl)-1,3,3,5,7-pentamethyloctahydrobenzo[c]isoxazole]: 1000 to 35000 nM.
For the compound `COc1cccc([C@@]2(C)C[C@@H]3[C@@H]([C@@H](C)C2)N(C)OC3(C)C)c1` (racemic) [Compound 94, rac-(3aR,5R,7S,7aR)-5-(3-methoxyphenyl)-1,3,3,5,7-pentamethyloctahydrobenzo[c]isoxazole], the EC50 was in the range of 50 to 300 nM.
Take `C[C@H]1C[C@@](C)(c2ccc(C(C)(C)C)cc2)C[C@@H]2[C@@H]1N(C)OC2(C)C` (racemic) [Compound 95, rac-(3aR,5R,7S,7aR)-5-(4-(tert-butyl)phenyl)-1,3,3,5,7-pentamethyloctahydrobenzo[c]isoxazole]: the concentration giving a half-maximal response (EC50) was 1000 to 35000 nM.
Next, `C[C@H]1C[C@@H](c2ccc(C(C)(C)C)cc2)C[C@@H]2[C@@H]1N(C)OC2(C)C` (racemic) [Compound 96, rac-(3aR,5R,7S,7aR)-5-(4-(tert-butyl)phenyl)-1,3,3,7-tetramethyloctahydrobenzo[c]isoxazole]: 1000 to 35000 nM; `CC(C)N1OC(C)(C)[C@@H]2C[C@H](c3ccc(C(C)(C)C)cc3)C[C@H](C)[C@H]21` (racemic) [Compound 97, rac-(3aR,5R,7S,7aR)-5-(4-(tert-butyl)phenyl)-1-isopropyl-3,3,7-trimethyloctahydrobenzo[c]isoxazole]: 1000 to 35000 nM.
For `Cc1cc(Cl)ccc1[C@H]1C[C@@H]2[C@@H]([C@@H](C)C1)N(C(C)C)OC2(C)C` (racemic) [Compound 98, rac-(3aR,5R,7S,7aR)-5-(4-chloro-2-methylphenyl)-1-isopropyl-3,3,7-trimethyloctahydrobenzo[c]isoxazole] the value was 50 to 300 nM; for `COc1cc(F)ccc1[C@@]1(C)C[C@@H]2[C@@H]([C@@H](C)C1)N(C)OC2(C)C` (racemic) [Compound 99, rac-(3aR,5R,7S,7aR)-5-(4-fluoro-2-methoxyphenyl)-1,3,3,5,7-pentamethyloctahydrobenzo[c]isoxazole], under 50 nM.
In the case of `Cc1cc(F)ccc1[C@@]1(C)C[C@@H]2[C@@H]([C@@H](C)C1)N(C)OC2(C)C` (racemic) [Compound 100, rac-(3aR,5R,7S,7aR)-5-(4-fluoro-2-methylphenyl)-1,3,3,5,7-pentamethyloctahydrobenzo[c]isoxazole], the EC50 was under 50 nM.
Next, `Cc1cc(F)ccc1[C@H]1C[C@@H]2[C@@H]([C@@H](C)C1)N(C)OC2(C)C` (racemic) [Compound 101, rac-(3aR,5R,7S,7aR)-5-(4-fluoro-2-methylphenyl)-1,3,3,7-tetramethyloctahydrobenzo[c]isoxazole]: 50 to 300 nM.
As for `CC(C)N1OC(C)(C)[C@@H]2C[C@](C)(c3ccc(F)cc3)C[C@H](C)[C@H]21` (racemic) [Compound 103, rac-(3aR,5R,7S,7aR)-5-(4-fluorophenyl)-1-isopropyl-3,3,5,7-tetramethyloctahydrobenzo[c]isoxazole], the EC50 was under 50 nM.
Next, `COc1ccc([C@@]2(C)C[C@@H]3[C@@H]([C@@H](C)C2)N(C)OC3(C)C)cc1` (racemic) [Compound 104, rac-(3aR,5R,7S,7aR)-5-(4-methoxyphenyl)-1,3,3,5,7-pentamethyloctahydrobenzo[c]isoxazole]: 300 to 1000 nM; `Cc1ccc(Cl)cc1[C@@]1(C)C[C@@H]2[C@@H]([C@@H](C)C1)N(C)OC2(C)C` (racemic) [Compound 105, rac-(3aR,5R,7S,7aR)-5-(5-chloro-2-methylphenyl)-1,3,3,5,7-pentamethyloctahydrobenzo[c]isoxazole]: under 50 nM; `Cc1ccc(Cl)cc1[C@H]1C[C@@H]2[C@@H]([C@@H](C)C1)N(C(C)C)OC2(C)C` (racemic) [Compound 106, rac-(3aR,5R,7S,7aR)-5-(5-chloro-2-methylphenyl)-1-isopropyl-3,3,7-trimethyloctahydrobenzo[c]isoxazole]: 300 to 1000 nM.
Next, `Cc1ccc(F)cc1[C@@]1(C)C[C@@H]2[C@@H]([C@@H](C)C1)N(C)OC2(C)C` (racemic) [Compound 107, rac-(3aR,5R,7S,7aR)-5-(5-fluoro-2-methylphenyl)-1,3,3,5,7-pentamethyloctahydrobenzo[c]isoxazole]: under 50 nM.
`Cc1ccc(F)cc1[C@H]1C[C@@H]2[C@@H]([C@@H](C)C1)N(C)OC2(C)C` (racemic) [Compound 108, rac-(3aR,5R,7S,7aR)-5-(5-fluoro-2-methylphenyl)-1,3,3,7-tetramethyloctahydrobenzo[c]isoxazole]: the concentration for a half-maximal effect (EC50) was 300 to 1000 nM.
For `C[C@H]1C[C@@](C)(c2ccc3c(c2)OCO3)C[C@@H]2[C@@H]1N(C)OC2(C)C` (racemic) [Compound 109, rac-(3aR,5R,7S,7aR)-5-(benzo[d][1,3]dioxol-5-yl)-1,3,3,5,7-pentamethyloctahydrobenzo[c]isoxazole] the value was 300 to 1000 nM; for `C[C@H]1C[C@@](C)(c2ccoc2)C[C@@H]2[C@@H]1N(C)OC2(C)C` (racemic) [Compound 110, rac-(3aR,5R,7S,7aR)-5-(furan-3-yl)-1,3,3,5,7-pentamethyloctahydrobenzo[c]isoxazole], 300 to 1000 nM.
Next, `CC(C)CC[C@@]1(C)C[C@@H]2[C@@H]([C@@H](C)C1)N(C(C)C)OC2(C)C` (racemic) [Compound 112, rac-(3aR,5R,S,7aR)-5-isopentyl-1-isopropyl-3,3,5,7-tetramethyloctahydrobenzo[c]isoxazole]: 50 to 300 nM.
